Measurements as given in ChEMBL document CHEMBL3813600, “Identification of a novel boronic acid as a potent, selective, and orally active hormone sensitive lipase inhibitor” (Bioorg Med Chem, 2016).
The source made the active and inactive calls. The calls are words filed in the database; no cut-off is given here.

Legend:
[1] = target: T1, Hormone-sensitive lipase (Homo sapiens) (UniProt Q05469); assay: Inhibition of recombinant human HSL expressed in Sf9 insect cells at 1 uM using PNPB as substrate measured after 5 mins by spectrophotometric method
T1 sequence (whole entry): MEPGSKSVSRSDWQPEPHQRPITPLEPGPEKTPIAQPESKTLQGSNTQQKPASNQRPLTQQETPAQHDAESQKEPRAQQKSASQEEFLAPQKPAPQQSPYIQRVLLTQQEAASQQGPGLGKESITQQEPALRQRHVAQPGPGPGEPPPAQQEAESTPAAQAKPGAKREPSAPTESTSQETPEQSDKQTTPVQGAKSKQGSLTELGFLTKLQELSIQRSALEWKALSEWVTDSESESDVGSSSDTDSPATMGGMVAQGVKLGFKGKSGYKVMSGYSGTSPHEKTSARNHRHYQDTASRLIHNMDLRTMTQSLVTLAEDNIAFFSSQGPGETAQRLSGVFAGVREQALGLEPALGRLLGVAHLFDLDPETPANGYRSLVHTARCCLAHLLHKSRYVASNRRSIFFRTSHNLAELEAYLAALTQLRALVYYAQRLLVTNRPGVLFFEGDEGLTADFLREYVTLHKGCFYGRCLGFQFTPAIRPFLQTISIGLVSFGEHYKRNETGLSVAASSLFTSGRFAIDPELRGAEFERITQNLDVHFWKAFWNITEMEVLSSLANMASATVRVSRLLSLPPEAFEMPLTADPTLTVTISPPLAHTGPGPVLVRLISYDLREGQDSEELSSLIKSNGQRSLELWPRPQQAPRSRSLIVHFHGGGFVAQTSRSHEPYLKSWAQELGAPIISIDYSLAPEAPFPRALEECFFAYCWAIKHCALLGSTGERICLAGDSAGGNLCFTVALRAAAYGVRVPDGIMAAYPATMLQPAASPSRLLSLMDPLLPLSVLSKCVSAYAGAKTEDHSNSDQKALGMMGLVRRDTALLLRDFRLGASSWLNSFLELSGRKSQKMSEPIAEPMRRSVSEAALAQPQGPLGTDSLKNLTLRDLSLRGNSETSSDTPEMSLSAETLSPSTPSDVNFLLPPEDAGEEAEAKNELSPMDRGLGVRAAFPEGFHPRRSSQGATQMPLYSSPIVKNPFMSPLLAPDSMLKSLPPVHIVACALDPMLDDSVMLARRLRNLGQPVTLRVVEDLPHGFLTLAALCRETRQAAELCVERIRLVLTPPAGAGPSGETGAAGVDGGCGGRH

Hormone-sensitive lipase = target: T2, Hormone-sensitive lipase (Homo sapiens, UniProt Q05469); assay: Inhibition of recombinant human HSL expressed in Sf9 insect cells using PNPB as substrate measured after 5 mins by spectrophotometric method
T2 sequence (Q05469 whole entry): T1 sequence (whole entry)

Rattus norvegicus [2] = assay: Antilipolytic activity in fasted Wistar rat assessed as reduction of plasma glycerol AUC ( 0 to 7 hrs) at 10 mg/kg, po; format: functional, organism-based
[3] = target: T1, Hormone-sensitive lipase (Homo sapiens); assay: Inhibition of recombinant human HSL expressed in Sf9 insect cells at 10 uM using PNPB as substrate measured after 5 mins by spectrophotometric method
[4] = Half life in rat plasma at 3 mg/kg, po by LC-MS/MS analysis; format: ADME, organism-based
[5] = target: T1, Hormone-sensitive lipase (Homo sapiens); assay: Mixed-type inhibition of recombinant human HSL expressed in Sf9 insect cells using PNPB as substrate measured after 5 mins by Lineweaver-Burk plot analysis
[6] = target: Acetylcholinesterase (Homo sapiens) (UniProt P22303); assay: Inhibition of AChE (unknown origin) at >50 uM preincubated for 10 mins followed by addition of acetylthiocholine iodide as substrate measured after 15 mins by spectrophotometric method
[7] = target: Cholinesterase (Homo sapiens) (UniProt P06276); assay: Inhibition of BChE (unknown origin) at >50 uM preincubated for 10 mins followed by addition of S-butyrylthiocholine iodide as substrate measured after 15 mins by spectrophotometric method
Rattus norvegicus [8] = assay: Antilipolytic activity in orally dosed fasted Wistar rat assessed as reduction of plasma glycerol AUC ( 0 to 7 hrs); format: functional, organism-based
[9] = Cmax in rat at 3 mg/kg, po by LC-MS/MS analysis; format: ADME, organism-based; parameters: dose 3 mg/kg, route oral; conditions: in vivo
[10] = AUC (0 to 7 hrs) in rat at 3 mg/kg, po by LC-MS/MS analysis; format: ADME, organism-based; parameters: time < 7 hr, dose 3 mg/kg, route oral; conditions: in vivo
Rattus norvegicus [11] = assay: Antilipolytic activity in fasted Wistar rat assessed as reduction of plasma glycerol AUC ( 0 to 7 hrs) at 3 mg/kg, po; format: functional; parameters: scale not given: the % may be the effect or the level left

Cholinesterase (Homo sapiens), sequence (P06276 whole entry): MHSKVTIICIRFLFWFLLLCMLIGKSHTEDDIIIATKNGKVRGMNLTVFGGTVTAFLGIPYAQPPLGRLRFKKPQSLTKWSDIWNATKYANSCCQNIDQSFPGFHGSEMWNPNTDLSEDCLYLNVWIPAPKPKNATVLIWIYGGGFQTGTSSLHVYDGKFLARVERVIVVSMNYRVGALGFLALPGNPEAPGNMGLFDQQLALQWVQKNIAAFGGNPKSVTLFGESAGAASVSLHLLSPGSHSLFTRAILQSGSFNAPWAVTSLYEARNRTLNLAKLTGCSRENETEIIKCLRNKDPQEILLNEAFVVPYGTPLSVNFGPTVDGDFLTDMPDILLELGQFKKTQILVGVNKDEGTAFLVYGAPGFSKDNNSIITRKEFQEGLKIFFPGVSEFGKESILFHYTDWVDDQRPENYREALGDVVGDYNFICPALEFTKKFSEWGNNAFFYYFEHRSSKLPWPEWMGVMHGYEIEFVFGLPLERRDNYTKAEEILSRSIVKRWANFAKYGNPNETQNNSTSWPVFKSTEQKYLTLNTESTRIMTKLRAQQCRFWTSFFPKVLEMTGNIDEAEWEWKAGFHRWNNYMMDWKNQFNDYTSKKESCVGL
Acetylcholinesterase (Homo sapiens), sequence (P22303 whole entry): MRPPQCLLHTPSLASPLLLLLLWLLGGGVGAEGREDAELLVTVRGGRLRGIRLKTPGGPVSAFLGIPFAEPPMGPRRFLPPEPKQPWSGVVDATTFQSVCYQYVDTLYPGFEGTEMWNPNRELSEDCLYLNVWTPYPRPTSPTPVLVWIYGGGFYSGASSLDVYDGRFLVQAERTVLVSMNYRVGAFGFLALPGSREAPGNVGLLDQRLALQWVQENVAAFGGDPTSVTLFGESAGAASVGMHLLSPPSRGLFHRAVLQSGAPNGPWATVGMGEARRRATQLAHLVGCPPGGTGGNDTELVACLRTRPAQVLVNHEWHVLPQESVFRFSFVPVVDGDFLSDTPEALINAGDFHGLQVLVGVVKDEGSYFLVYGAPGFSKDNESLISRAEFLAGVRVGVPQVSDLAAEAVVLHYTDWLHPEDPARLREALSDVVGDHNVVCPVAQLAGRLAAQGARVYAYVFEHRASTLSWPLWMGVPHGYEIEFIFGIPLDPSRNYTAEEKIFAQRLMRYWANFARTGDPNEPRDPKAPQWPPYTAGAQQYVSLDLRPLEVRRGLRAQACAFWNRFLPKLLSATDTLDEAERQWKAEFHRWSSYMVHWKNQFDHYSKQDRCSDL

Work on `CC1(C)OB(c2cccc(OCc3ccc(Oc4ccc(C(F)(F)F)cn4)cc3)c2)OC1(C)C` yielded an inhibition [1] of 59%.

Compound `CC1(C)OB(c2ccc(OCc3ccc(Oc4ccc(C(F)(F)F)cn4)cc3)cc2)OC1(C)C` has an inhibition [1] of -10%.

For `O=C(Oc1ccc(Oc2ccc(C(F)(F)F)cn2)cc1)N1CCC(O)CC1`, the IC50 (Hormone-sensitive lipase) was 270 nM and the Activity (Rattus norvegicus [2]) was “Active”.

Compound `N#Cc1ccccc1OCc1ccc(Oc2ccc(C(F)(F)F)cn2)cc1` has an inhibition [1] of 0%.

In the case of `OB(O)c1ccccc1OCc1ccccc1`, the IC50 (Hormone-sensitive lipase) is reported as 130 nM.

With `O=C(Nc1ccc(Oc2ccc(C(F)(F)F)cn2)cc1)N1CCC(O)CC1` the inhibition [3] was 0%.

`O=C(O)c1ccccc1OCc1ccc(Oc2ccc(C(F)(F)F)cn2)cc1` gave an inhibition [1] of -8%.

For `O=C(c1ccccc1OCc1ccc(Oc2ccc(C(F)(F)F)cn2)cc1)C(F)(F)F`, the inhibition [1] was 1%.

Compound `O=P(O)(O)c1ccccc1OCc1ccc(Oc2ccc(C(F)(F)F)cn2)cc1` has an inhibition [1] of -5%.

`O=C(Cc1ccc(Oc2ccc(C(F)(F)F)cn2)cc1)N1CCC(O)CC1` showed an inhibition [3] of 2%.

Work on `OB(O)c1ccccc1OCc1ccc(Oc2ccc(C(F)(F)F)cn2)cc1` yielded an IC50 (Hormone-sensitive lipase) of 7 nM, an inhibition [1] of 89% and a half-life [4] of 2.95 h. The inhibition [5] was “Active”, the inhibition [6] was “inactive” and the inhibition [7] was “inactive”. The Activity (Rattus norvegicus [8]) was “Dose-dependent effect”, the Cmax [9] was 420 ng/mL and the AUC(0-t) at 7 h [10] was 1750 ng·h/mL. It also gave an Activity (Rattus norvegicus [11]) of 11%.

With `CC1(C)OB(c2ccccc2OCc2ccc(Oc3ccc(C(F)(F)F)cn3)cc2)OC1(C)C` the inhibition [1] was 81%.
